Experimental data taken from US20260070929A1, “METHODS AND COMPOSITIONS FOR MODULATING KRAS(G12D)” (Ranok Therapeutics (Hangzhou) Co. LTD., priority 2022, published 2026).

Experiments:
[1] = tested on: AGS gastric carcinoma cells [heterozygous G12D]; experiment: Cancer cell line proliferation (CellTiter-Glo), AGS; format: cell-based; settings: Homo sapiens, 72 hr treatment, read-out: AGS CTG (EC50)
Summary of the method: (§1)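 EC50 values come from CellTiter-Glo viability measured after 72 hr compound treatment at 37° C./5% CO2 with 0.5% final DMSO. Plating was at 4,000 cells/well with 72 hr growth before dosing, and compounds were serially diluted 3-fold from 20 μM down to 1.02 nM.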

[2] = tested on: A-427 lung carcinoma cells [heterozygous G12D]; experiment: Cancer cell line proliferation (CellTiter-Glo), A-427; format: cell-based; settings: Homo sapiens, A-427 cells, 72 hr treatment, read-out: A427 CTG (EC50)
Summary of the method: as §1

[3] = tested on: SW1990 pancreatic adenocarcinoma cells [homozygous G12D]; experiment: Cancer cell line proliferation (CellTiter-Glo), SW1990; format: cell-based; settings: Homo sapiens, 72 hr treatment, read-out: SW1990 CTG (EC50)
Protocol: The following cancer cell lines were employed: AGS gastric carcinoma [heterozygous G12D](ATCC, CRL-1739); A-427 lung carcinoma [heterozygous G12D](ATCC, HTB-53); ASPC1 pancreatic adenocarcinoma [homozygous G12D](ATCC, CRL-1682) and SW1990 pancreatic adenocarcinoma [homozygous G12D](ATCC CRL-2172). Cell lines were cultured essentially according to ATCC recommendations.
AGS, A-427, ASPC1, SW1990, and GP2D cells were plated in 96-well tissue culture plates at 4,000 cells/well and incubated at 37° C./5% CO2 for 72 hr in 100 μl of media. 3-fold serial dilutions of each test compound were prepared ranging from 20 μM to 1.02 nM. Each cell line was then treated with test compounds at various concentrations with a final concentration of 0.5% DMSO/well, and then incubated at 37° C./5% CO2 for 72 hr. 100 µl of CellTiter-Glo® Reagent (Promega Corporation, Madison, WI) was added to each well and processed according manufacturer's protocol. Results were analyzed and EC50 values were calculated in GraphPad 7 software.

[4] = biological target: T1, KRAS(G12D)/SOS1 (Homo sapiens, UniProt P01116, G12D); experiment: KRAS(G12D)/SOS1 homogeneous time-resolved fluorescence (HTRF) assay; format: binding; settings: absence of GTP; 4° C., 3 hr
T1 construct: purchased Cisbio 63ADK000CB17PEH
T1 sequence (P01116 1-188 isoform P01116-2 G12D): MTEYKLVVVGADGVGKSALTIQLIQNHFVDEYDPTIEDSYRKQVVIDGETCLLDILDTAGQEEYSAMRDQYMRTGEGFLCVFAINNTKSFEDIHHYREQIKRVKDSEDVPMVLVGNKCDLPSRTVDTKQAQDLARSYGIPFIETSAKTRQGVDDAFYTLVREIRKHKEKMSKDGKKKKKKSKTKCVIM
Summary of the method: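 Disruption of the KRAS(G12D)/SOS1 pairing, in the absence of GTP, was read by time-resolved FRET after a 3 hr sealed incubation at 4 °C. Test compounds spanned 20 µM down to 1.02 nM in 3-fold steps. IC50 values correspond to half-maximal inhibition.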

[5] = tested on: ASPC1 pancreatic adenocarcinoma cells [homozygous G12D]; experiment: Cancer cell line proliferation (CellTiter-Glo), ASPC1; format: cell-based; settings: Homo sapiens, ASPC1, 72 h, 72 hr treatment, read-out: ASPC-1 CTG (EC50)
Summary of the method: as §1

Row | Structure (SMILES) | EC50 [1] [µM] | EC50 [2] [µM] | EC50 [3] [µM] | IC50 [4] [µM] | EC50 [5] [µM]
1 | CCNC(=O)c1nnc(-c2cc(C(C)C)c(O)cc2O)n1-c1ccc(CN2CCC(CN3CCN([C@H]4C[C@@H](COc5nc(N6CC7CCC(C6)N7)c6cnc(-c7cccc(F)c7C)c(F)c6n5)N(C)C4)CC3)CC2)cc1 [Compound 83] | < 0.1 | < 0.1 | < 0.1 | > 1 | –
2 | C#Cc1c(F)ccc2cc(O)cc(-c3ncc4c(N5CC6CCC(C5)N6)nc(OCC5(CN6CCN(CC7CN(Cc8ccc9c(c8)CN(C(=O)c8cc(C(C)C)c(O)cc8O)C9)C7)CC6)CC5)nc4c3F)c12 [Compound 164] | < 0.1 | – | < 0.1 | < 0.1 | 0.1 to 1
3 | C#Cc1c(F)ccc2cc(O)cc(-c3ncc4c(N5CC6CCC(C5)N6)nc(OCC5CN(Cc6ccc7c(c6)CN(C(=O)c6cc(C(C)C)c(O)cc6O)C7)C5)nc4c3F)c12 [Compound 172] | 0.1 to 1 | – | 0.1 to 1 | < 0.1 | –
4 | C#Cc1c(F)ccc2cc(O)cc(-c3ncc4c(N5CC6CCC(C5)N6)nc(OCc5ccc6c(c5)CN(C(=O)c5cc(C(C)C)c(O)cc5O)C6)nc4c3F)c12 [Compound 173] | 0.1 to 1 | – | > 1 | 0.1 to 1 | –
5 | C#Cc1c(F)ccc2cc(O)cc(-c3ncc4c(N5CC6CCC(C5)N6)nc(OCC5CN(Cc6ccc(-n7c(C(=O)NC(C)C(F)(F)F)nnc7-c7cc(C(C)C)c(O)cc7O)cc6)C5)nc4c3F)c12 (centres unmarked) [Compound 174] | 0.1 to 1 | – | > 1 | < 0.1 | –
6 | C#Cc1c(F)ccc2cc(O)cc(-c3ncc4c(N5CC6CCC(C5)N6)nc(OCC5CN(Cc6ccc(-n7c(C(=O)NCC(F)(F)F)nnc7-c7cc(C(C)C)c(O)cc7O)cc6)C5)nc4c3F)c12 [Compound 175] | 0.1 to 1 | – | 0.1 to 1 | < 0.1 | –
7 | C#Cc1c(F)ccc2cc(O)cc(-c3ncc4c(N5CC6CCC(C5)N6)nc(OC5CN(Cc6ccc(-n7c(C(=O)NC(C)C(F)(F)F)nnc7-c7cc(C(C)C)c(O)cc7O)cc6)C5)nc4c3F)c12 (centres unmarked) [Compound 176] | 0.1 to 1 | – | > 1 | 0.1 to 1 | –
8 | C#Cc1c(F)ccc2cc(O)cc(-c3ncc4c(N5CC6CCC(C5)N6)nc(OCC5(CN6CCN(C7CN(Cc8ccc9c(c8)CN(C(=O)c8cc(C(C)C)c(O)cc8O)C9)C7)CC6)CC5)nc4c3F)c12 [Compound 177] | < 0.1 | – | < 0.1 | < 0.1 | –
9 | C#Cc1c(F)ccc2cc(O)cc(-c3nc(OC)c4c(N5CC6CCC(C5)N6)nc(OCC5(CN6CCN(C7CCN(Cc8ccc(-n9c(C(=O)NC(C)C(F)(F)F)nnc9-c9cc(C(C)C)c(O)cc9O)cc8)CC7)CC6)CC5)nc4c3F)c12 (centres unmarked) [Compound 178] | < 0.1 | – | < 0.1 | < 0.1 | –
10 | C#Cc1c(F)ccc2cc(O)cc(-c3ncc4c(N5CC6CCC(C5)N6)nc(OC5CN(Cc6ccc(-n7c(C(=O)NCC(F)(F)F)nnc7-c7cc(C(C)C)c(O)cc7O)cc6)C5)nc4c3F)c12 [Compound 179] | 0.1 to 1 | – | > 1 | 0.1 to 1 | –
11 | C#Cc1c(F)ccc2cc(O)cc(-c3ncc4c(N5CC6CCC(C5)N6)nc(OCC5(CN6CCC(N7CCN(Cc8ccc9c(c8)CN(C(=O)c8cc(C(C)C)c(O)cc8O)C9)CC7)CC6)CC5)nc4c3F)c12 [Compound 180] | < 0.1 | – | < 0.1 | < 0.1 | –
12 | C#Cc1c(F)ccc2cc(O)cc(-c3ncc4c(N5CC6CCC(C5)N6)nc(OCC5(CN6CCC(N7CCN(Cc8ccc(-n9c(C(=O)NC(C)C(F)(F)F)nnc9-c9cc(C(C)C)c(O)cc9O)cc8)CC7)CC6)CC5)nc4c3F)c12 (centres unmarked) [Compound 181] | < 0.1 | – | < 0.1 | < 0.1 | –
13 | C#Cc1c(F)ccc2cc(O)cc(-c3nc(OC)c4c(N5CC6CCC(C5)N6)nc(OCC5(CN6CCC(C7CCN(Cc8ccc(-n9c(C(=O)NC(C)C(F)(F)F)nnc9-c9cc(C(C)C)c(O)cc9O)cc8)CC7)CC6)CC5)nc4c3F)c12 (centres unmarked) [Compound 182] | < 0.1 | – | < 0.1 | < 0.1 | –
14 | C#Cc1c(F)ccc2cc(O)cc(-c3ncc4c(N5CC6CCC(C5)N6)nc(OCC5(CN6CCC7(CCN(Cc8ccc(-n9c(C(=O)NC(C)C(F)(F)F)nnc9-c9cc(C(C)C)c(O)cc9O)cc8)CC7)CC6)CC5)nc4c3F)c12 (centres unmarked) [Compound 183] | < 0.1 | – | < 0.1 | < 0.1 | –
15 | C#Cc1c(F)ccc2cc(O)cc(-c3ncc4c(N5CC6CCC(C5)N6)nc(OCC5(CN6CCC7(CCN(Cc8ccc9c(c8)CN(C(=O)c8cc(C(C)C)c(O)cc8O)C9)CC7)CC6)CC5)nc4c3F)c12 [Compound 184] | < 0.1 | – | < 0.1 | < 0.1 | –
16 | C#Cc1c(F)ccc2cc(O)cc(-c3ncc4c(N5CC6CNC(C6)C5)nc(OCC5(CN6CCC(C7CCN(Cc8ccc(-n9c(C(=O)NC(C)C(F)(F)F)nnc9-c9cc(C(C)C)c(O)cc9O)cc8)CC7)CC6)CC5)nc4c3F)c12 (centres unmarked) [Compound 185] | 0.1 to 1 | – | 0.1 to 1 | 0.1 to 1 | –
17 | C#Cc1c(F)ccc2cc(O)cc(-c3nc(OC)c4c(N5CC6CCC(C5)N6)nc(OCC5(CN6CCC(C7CCN(Cc8ccc9c(c8)CN(C(=O)c8cc(C(C)C)c(O)cc8O)C9)CC7)CC6)CC5)nc4c3F)c12 [Compound 186] | < 0.1 | – | < 0.1 | < 0.1 | –
18 | C#Cc1c(F)ccc2cc(O)cc(-c3ncc4c(N5CC6CNC(C6)C5)nc(OCC5(CN6CCC(C7CCN(Cc8ccc9c(c8)CN(C(=O)c8cc(O)c(C(C)C)cc8O)C9)CC7)CC6)CC5)nc4c3F)c12 (centres unmarked) [Compound 187] | 0.1 to 1 | – | > 1 | 0.1 to 1 | –
19 | C#Cc1c(F)ccc2cc(O)cc(-c3ncc4c(N5CC6CNC(C6)C5)nc(OCC5(CN6CCN(C7CCN(Cc8ccc(-n9c(C(=O)NC(C)C(F)(F)F)nnc9-c9cc(C(C)C)c(O)cc9O)cc8)CC7)CC6)CC5)nc4c3F)c12 (centres unmarked) [Compound 188] | 0.1 to 1 | – | 0.1 to 1 | 0.1 to 1 | –
20 | C#Cc1c(F)ccc2cc(O)cc(-c3nc(OC)c4c(N5CC6CNC(C6)C5)nc(OCC5(CN6CCN(Cc7ccc(-n8c(C(=O)NCC)nnc8-c8cc(C(C)C)c(O)cc8O)cc7)CC6)CC5)nc4c3F)c12 (centres unmarked) [Compound 189] | < 0.1 | – | < 0.1 | < 0.1 | –
21 | C#Cc1c(F)ccc2cc(O)cc(-c3nc(OC)c4c(N5CC6CCC(C5)N6)nc(OCC5(CN6CCN(Cc7ccc8c(c7)CN(C(=O)c7cc(C(C)C)c(O)cc7O)C8)CC6)CC5)nc4c3F)c12 [Compound 190] | < 0.1 | – | < 0.1 | < 0.1 | –
22 | C#Cc1c(F)ccc2cc(O)cc(-c3nc(OC)c4c(N5CC6CCC(C5)N6)nc(OCC5(CNCC6CN(Cc7ccc8c(c7)CN(C(=O)c7cc(C(C)C)c(O)cc7O)C8)CCO6)CC5)nc4c3F)c12 (centres unmarked) [Compound 191] | < 0.1 | – | 0.1 to 1 | < 0.1 | –
23 | C#Cc1c(F)ccc2cc(O)cc(-c3nc(OC)c4c(N5CC6CCC(C5)N6)nc(OCC5(CN6CCOC(CNCc7ccc8c(c7)CN(C(=O)c7cc(C(C)C)c(O)cc7O)C8)C6)CC5)nc4c3F)c12 (centres unmarked) [Compound 192] | 0.1 to 1 | – | 0.1 to 1 | > 1 | –
24 | C#Cc1c(F)ccc2cc(O)cc(-c3ncc4c(N5CC6CCC(C5)N6)nc(OCC5CN(C6CN(Cc7ccc8c(c7)CN(C(=O)c7cc(C(C)C)c(O)cc7O)C8)C6)C5)nc4c3F)c12 [Compound 193] | 0.1 to 1 | – | 0.1 to 1 | < 0.1 | –
25 | C#Cc1c(F)ccc2cc(O)cc(-c3ncc4c(N5CC6CCC(C5)N6)nc(OCC5CN(CC6(CNc7ccc8c(c7)CN(C(=O)c7cc(C(C)C)c(O)cc7O)C8)CC6)C5)nc4c3F)c12 [Compound 194] | 0.1 to 1 | – | 0.1 to 1 | < 0.1 | –
